In publication PMC8297402, “Trifluoromethyl-substituted 3,5-bis(arylidene)-4-piperidones as potential anti-hepatoma and anti-inflammation agents by inhibiting NF-кB activation” (Journal of Enzyme Inhibition and Medicinal Chemistry, 2021):
Like-named read-outs stand apart in the source and are kept apart here.

What was measured:
C-Caspase-3 = assay: Western blot, C-Caspase-3 expression in HepG2 cells; type: cell-based, Human; conditions: HepG2, 1.0, 2.0, 4.0 μM, 24 h
From the text: (§1) Primary antibodies (anti-Bax, Abcam, ab32503; anti-Bcl-2, Abcam, ab194583; anti-Cleaved caspase-3, Abcam, ab2302; anti-p65, Cell Signalling Technology, 8242S; anti-p-p65, Cell Signalling Technology, 3033S; anti-IκBα, Cell Signalling Technoligy, 4812S; anti-p-IκBα, Cell Signalling Technology, 2859S; anti-p38, Cell Signalling Technology, 8690S; anti-p-p38, Cell Signalling Technology, 4511S; anti-JNK, Cell Signalling Technology, 9258 T; anti-p-JNK, Santa Cruz Biotechnology, sc-6254; anti-GAPDH, Abcam, ab181602), and goat anti-rabbit IgG/HRP secondary antibodies (Cell Signalling Technology, 98164 s) were purchased and used according to the manufacturer’s instructions. HepG2 cell lines were incubated with different doses of BAP 16 (1.0, 2.0, 4.0 μM) for 24 h (Bax, Cleaved caspase-3, Bcl-2). RAW264.7 cells were incubated with BAP 16 for 1 h, then treated with LPS (1.0 μg/mL) for 30 min. Afterward cell extraction was performed and extracts were used for Western blot analysis. Next, 30 μg protein of cell lysates were separated by 12% SDS-PAGE gel. The proteins were then transferred onto nitrocellulose membranes. […] By using Quantity One software (Bio-Rad), western blotting results were quantified from more than three separate experiments.

A2780 = assay: Modified MTT cytotoxicity assay, A2780
Method: (§2) To further verify the anti-tumour activity, one human non-small cell lung cancer cell line (A549), one human ovarian cancer cell line (A2780), and one human normal heptical cell line (HHL-5) were screened by BAPs (4–30) using a modified MTT assay (Supporting Information). DOX and curcumin were selected as positive controls.
(§3) The optical density (OD) value of each well was measured on a
(§4) multi-well plate reader (TECAN, Mӓnnedorf, Switzerland ) at 570 nm.
(§5) Every IC 50 value was the average of three replicates.
(§6) Doxorubicin (DOX) and Curcumin were used as positive controls.

A549 = assay: Modified MTT cytotoxicity assay, A549
Method: as §2, §3, §4, §5, §6

HepG2 = assay: Modified MTT cytotoxicity assay, HepG2; type: cell-based, Human; conditions: for IC50: Homo sapiens; for SI (selectivity index) HepG2: quotient of IC50 for normal (LO2) and malignant (HepG2) cells
Procedure, shortened: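 HepG2 grown in DMEM, SMMC-7721 and LO2 in RPMI 1640, each with 10% FBS; ~8 × 10^3 cells/well. Compounds at 0.3125-10 μg/mL for 24 h at 37 °C, then MTT for 4 h. IC50 as mean of three replicates.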

HepG2 cells = assay: Apoptosis assay, Annexin V-FITC/PI flow cytometry; type: cell-based, Human; conditions: 1.0 μM, 24 h
Method: HepG2 cells were selected and plated at a density of approximately 2 × 10^5 cells/well in a 12-well plate. After treatment with BAP 16 (1.0, 2.0, and 4.0 μM) and DMSO for 24 h, cells were harvested, washed twice with pre-chilled PBS, and suspended in 1 × binding buffer at a concentration of 1 × 10^5 cells/mL. According to the manufacturer’s instruction, 100 μL of such medium was then mixed with 5 μL of Annexin V-FITC and 5 μL of propidium iodide (BD Biosciences, San Jose, CA, USA). The mixture was vortexed gently, then incubated in the dark at room temperature for 15 min. Apoptosis analysis was measured by flow cytometry (BD FACS Calibur).

p-p38 = assay: Western blot, LPS-induced phosphorylation of p38 in RAW264.7 cells; type: cell-based, mouse; conditions: RAW264.7, 1.0, 2.0, 4.0 μM, LPS 1.0 μg/mL 30 min
From the text: as §1

Bcl-2 = assay: Western blot, Bcl-2 expression in HepG2 cells; type: cell-based, Human; conditions: HepG2, 1.0, 2.0, 4.0 μM, 24 h
From the text: as §1

p-p65 = assay: Western blot, LPS-stimulated phosphorylation of p65 in RAW264.7 cells; type: cell-based, mouse; conditions: RAW264.7, 1.0, 2.0, 4.0 μM, LPS 1.0 μg/mL 30 min
From the text: as §1

Bax = assay: Western blot, Bax expression in HepG2 cells; type: cell-based, Human; conditions: HepG2, 1.0, 2.0, 4.0 μM, 24 h
From the text: as §1

p-IκBα = assay: Western blot, LPS-stimulated phosphorylation of IκBα in RAW264.7 cells; type: cell-based, mouse; conditions: RAW264.7, 1.0, 2.0, 4.0 μM, LPS 1.0 μg/mL 30 min
From the text: as §1

p-JNK = assay: Western blot, LPS-induced phosphorylation of JNK in RAW264.7 cells; type: cell-based, mouse; conditions: RAW264.7, 1.0, 2.0, 4.0 μM, LPS 1.0 μg/mL 30 min
From the text: as §1

SMILES: O=C1C(=Cc2cccc(C(F)(F)F)c2)CN(S(=O)(=O)c2ccc(C(F)(F)F)cc2)CC1=Cc1cccc(C(F)(F)F)c1 [BAP 16]
- Expression of pro-apoptotic protein C-Caspase-3 (C-Caspase-3): significantly increased
- IC50 (A2780; Homo sapiens, A2780, read-out: Cytotoxicity IC50 A2780, MTT, ovarian cancer cell line): 270 ± 20 nM
- SI (selectivity index) A2780 (A2780; quotient of IC50 for normal (HHL-5) and malignant (A2780) cells): 23.0
- IC50 (A549; Homo sapiens, A549, read-out: Cytotoxicity IC50 A549, MTT, non-small cell lung cancer cell line): 430 ± 80 nM
- SI (selectivity index) A549 (A549; quotient of IC50 for normal (HHL-5) and malignant (A549) cells): 14.4
- IC50 (HepG2; HepG2, 24 h, MTT, 24 h incubation, three replicates, read-out: Cytotoxicity IC50 HepG2): ~600 nM
- IC50 (HepG2; HepG2, average of HepG2 and SMMC-7721, read-out: Cytotoxicity against HCC cells, average): 900 nM
- SI value, average (HepG2; average of SI for HepG2 and SMMC-7721): 22.3
- SI (selectivity index) HepG2 (HepG2): ca. 29.7
- SI (selectivity index) HepG2 (HepG2; listed as 16): 29.7
- Apoptosis of HepG2 cells (HepG2 cells): 31.7%
- Expression level of p-p38 (p-p38): significantly decreased
- Expression of anti-apoptotic protein Bcl-2 (Bcl-2): decreased in a dose-dependent manner
- Expression level of p-p65 (p-p65): significantly decreased in a dose-dependent manner
- Expression of pro-apoptotic protein Bax (Bax): significantly increased
- Expression level of p-IκBα (p-IκBα): significantly decreased in a dose-dependent manner
- Expression level of p-JNK (p-JNK): significantly decreased
